Measured values as given in US20260248824A1, “LIPID NANOPARTICLES” (SHIZUOKA PREFECTURAL UNIVERSITY CORPORATION, priority 2023, published 2026).

Tested on: Insulinoma INS-1 cells derived from rat pancreatic β cells
Test: Antiapoptotic effects on pancreatic β cells (cleaved caspase-3 western blotting, thapsigargin-induced)
Type: cell-based
Conditions: thapsigargin 300 nM, nobiletin concentration 20 μM, 14 hours, FIG. 20
Experimental: Insulinoma INS-1 cells derived from rat pancreatic β cells were seeded into a 6-well dish at 8×10^5 cells/well. […] After 14 hours of treatment, the cells were collected and subjected to SDS-PAGE, and protein expression in pancreatic β cells was analyzed by western blotting using a cleaved caspase-3 antibody as an indicator of apoptosis. Correction was made using the expression level of 3-actin as an internal standard.

Structure (SMILES): COc1ccc(-c2cc(=O)c3c(OC)c(OC)c(OC)c(OC)c3o2)cc1OC [nobiletin alone, nobiletin]
- Suppression of thapsigargin-induced increase in cleaved caspase 3 (antiapoptotic activity): The effects were comparative with nobiletin alone
